Test results: ChEMBL document CHEMBL1141652 (J Med Chem, 2008)

Legend:
[1] = biological target: Disintegrin and metalloproteinase domain-containing protein 17 (Homo sapiens, UniProt P78536)
Description: Inhibition of human recombinant TACE

[2] = Selectivity for human recombinant TACE over BMP1
[3] = Selectivity for human recombinant TACE over MMP3
[4] = Selectivity for human recombinant TACE over MMP14
[5] = Selectivity for human recombinant TACE over ADAM10
[6] = Selectivity for human recombinant TACE over MMP1
[7] = Selectivity for human recombinant TACE over MMP2
[8] = Selectivity for human recombinant TACE over MMP7

Chain of Disintegrin and metalloproteinase domain-containing protein 17 (P78536 whole entry, the tested form may be a part): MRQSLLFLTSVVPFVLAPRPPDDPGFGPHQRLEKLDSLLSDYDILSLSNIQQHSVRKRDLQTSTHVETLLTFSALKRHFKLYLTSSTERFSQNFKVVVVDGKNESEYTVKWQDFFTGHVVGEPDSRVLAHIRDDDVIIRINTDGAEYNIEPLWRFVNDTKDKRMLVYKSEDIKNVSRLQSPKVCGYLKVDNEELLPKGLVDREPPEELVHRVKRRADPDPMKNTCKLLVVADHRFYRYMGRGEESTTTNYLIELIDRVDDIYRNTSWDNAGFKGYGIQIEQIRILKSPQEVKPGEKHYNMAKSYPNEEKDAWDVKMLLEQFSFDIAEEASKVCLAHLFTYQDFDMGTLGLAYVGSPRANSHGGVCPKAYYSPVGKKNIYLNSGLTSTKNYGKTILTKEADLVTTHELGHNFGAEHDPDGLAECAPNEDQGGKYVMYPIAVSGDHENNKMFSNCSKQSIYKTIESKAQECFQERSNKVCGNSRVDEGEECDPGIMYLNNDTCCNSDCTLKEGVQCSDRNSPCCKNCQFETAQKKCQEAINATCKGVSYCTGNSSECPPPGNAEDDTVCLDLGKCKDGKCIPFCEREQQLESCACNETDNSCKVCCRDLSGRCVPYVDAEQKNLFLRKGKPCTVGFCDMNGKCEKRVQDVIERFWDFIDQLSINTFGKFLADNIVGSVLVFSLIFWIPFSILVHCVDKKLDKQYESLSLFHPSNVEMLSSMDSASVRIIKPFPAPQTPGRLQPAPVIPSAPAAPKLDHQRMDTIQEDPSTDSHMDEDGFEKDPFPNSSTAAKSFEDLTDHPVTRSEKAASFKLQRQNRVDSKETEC

| Structure (SMILES) | Ki [1] [nM] | also measured |
| --- | --- | --- |
| COC(=O)[C@@]1(Cc2ccc(OCCc3cccc4ccccc34)cc2)C[C@@H]1C(=O)NO | > 100000 |  |
| COC(=O)[C@]1(c2cccc(OCc3cccc(C(F)(F)F)c3)c2)C[C@H]1C(=O)NO | 70 |  |
| CC#CCOc1ccc(C[C@]2(C(=O)OC)C[C@@H]2C(=O)NO)cc1 | 420 |  |
| CNC(=O)[C@]1(c2cccc(OCc3cc(C)nc4ccccc34)c2)C[C@H]1C(=O)NO | 100 |  |
| CCOC(=O)[C@]1(c2cccc(OCc3cc(C)nc4ccccc34)c2)C[C@H]1C(=O)NO | 16 |  |
| CC#CCOc1ccc(C[C@]2(C(N)=O)C[C@@H]2C(=O)NO)cc1 | 80 |  |
| Cc1cc(COc2ccc(C[C@]3(C(=O)N(C)C)C[C@@H]3C(=O)NO)cc2)c2ccccc2n1 | 1 |  |
| COC(=O)[C@]1(c2cccc(OCc3ccc(Cl)c(Cl)c3)c2)C[C@H]1C(=O)NO | 11 | Ratio Ki [2]: 400; Ratio Ki [3]: 600; Ratio Ki [4]: 2400; Ratio Ki [5]: 10; Ratio Ki [6]: 6800; Ratio Ki [7]: 2800; Ratio Ki [8]: 5400 |
| Cc1cc(COc2cccc([C@@]3(C(=O)NC4CCCCC4)C[C@H]3C(=O)NO)c2)c2ccccc2n1 | 9 |  |
| COC(=O)[C@]1(c2cccc(Oc3ccc(C)cc3)c2)C[C@H]1C(=O)NO | 140 |  |
| NC(=O)C1(Cc2ccc(OCc3ccccc3)cc2)CC1C(=O)NO (racemic) | 360 |  |
| Cc1cc(COc2cccc([C@@]3(C(=O)N(C)Cc4ccccc4)C[C@H]3C(=O)NO)c2)c2ccccc2n1 | 3000 |  |
| COC(=O)[C@]1(c2cccc(OCC3CCCCC3)c2)C[C@H]1C(=O)NO | 900 |  |
| COC(=O)C1(Cc2ccc(OCc3ccccc3)cc2)CC1C(=O)NO (racemic) | 800 |  |
| Cc1cc(COc2cccc([C@@]3(C(N)=O)C[C@H]3C(=O)NO)c2)c2ccccc2n1 (relative stereo) | 700 |  |
| COC(=O)[C@]1(c2cccc(Oc3ccccc3)c2)C[C@H]1C(=O)NO | 1100 |  |
| COC(=O)[C@]1(c2cccc(OCCc3cccc4ccccc34)c2)C[C@H]1C(=O)NO | 50 |  |
| Cc1cc(COc2cccc([C@@]3(C(=O)N4CCN(C)CC4)C[C@H]3C(=O)NO)c2)c2ccccc2n1 | 5000 |  |
| COC(=O)[C@@]1(Cc2ccc(OCc3ccc(Cl)c(Cl)c3)cc2)C[C@@H]1C(=O)NO | 130 |  |
| COC(=O)[C@@]1(Cc2ccc(OCC3CCCCC3)cc2)C[C@@H]1C(=O)NO | 26000 |  |
| COC(=O)C1(c2cccc(OCc3ccccc3)c2)CC1C(=O)NO (racemic) | 500 |  |
| COC(=O)[C@]1(c2cccc(OCc3cccc(F)c3)c2)C[C@H]1C(=O)NO | 80 |  |

| Structure (SMILES) | Ki [1] [nM] | also measured |
| --- | --- | --- |
| CCOC(=O)[C@@]1(Cc2ccc(Oc3ccccc3)cc2)C[C@@H]1C(=O)NO | 3100 |  |
| Cc1cc(COc2cccc([C@@]3(C(=O)OC(C)C)C[C@H]3C(=O)NO)c2)c2ccccc2n1 | 8 | Ratio Ki [2]: 800; Ratio Ki [3]: 1500; Ratio Ki [4]: 3000; Ratio Ki [5]: 4; Ratio Ki [6]: 7400; Ratio Ki [7]: 1400; Ratio Ki [8]: 12400 |
| COC(=O)[C@]1(c2cccc(OC)c2)C[C@H]1C(=O)NO | 3000 |  |
| COC(=O)[C@@]1(Cc2ccc(OCCc3ccc4ccccc4c3)cc2)C[C@@H]1C(=O)NO | > 100000 |  |
| Cc1cc(COc2cccc([C@@]3(C(=O)N(C)C)C[C@H]3C(=O)NO)c2)c2ccccc2n1 | 2700 |  |
| COC(=O)[C@@]1(Cc2ccc(OCc3ccccc3Cl)cc2)C[C@@H]1C(=O)NO | 260 |  |
| CC#CCOc1cccc([C@@]2(C(=O)OC)C[C@H]2C(=O)NO)c1 | 1600 |  |
| COC(=O)[C@@]1(Cc2ccc(OCc3ccccc3)cc2)C[C@@H]1C(=O)NO (racemic) | 800 |  |
| Cc1cc(COc2cccc([C@@]3(C(=O)NCc4ccccc4)C[C@H]3C(=O)NO)c2)c2ccccc2n1 | 140 |  |
| COC(=O)[C@]1(c2cccc(OCc3ccc(C(F)(F)F)cc3)c2)C[C@H]1C(=O)NO | 18 | Ratio Ki [2]: 700; Ratio Ki [3]: 200; Ratio Ki [4]: 4000; Ratio Ki [5]: 8; Ratio Ki [6]: 1800; Ratio Ki [7]: > 600; Ratio Ki [8]: > 600 |
| COC(=O)[C@]1(c2cccc(OCc3cccc(OC)c3)c2)C[C@H]1C(=O)NO | 110 |  |
| COC(=O)[C@]1(c2cccc(Oc3ccc4ccccc4c3)c2)C[C@H]1C(=O)NO | 70 |  |
| COC(=O)[C@]1(c2cccc(Oc3ccccc3C)c2)C[C@H]1C(=O)NO | 240 |  |
| CNC(=O)[C@@]1(Cc2ccc(OCc3cc(C)nc4ccccc34)cc2)C[C@@H]1C(=O)NO | 14 |  |
| NC(=O)C1(c2cccc(OCc3ccccc3)c2)CC1C(=O)NO (stereo not given) | 1200 |  |
| Cc1cc(COc2cccc([C@@]3(C(=O)Nc4ccccc4)C[C@H]3C(=O)NO)c2)c2ccccc2n1 | 11 |  |
| COC(=O)[C@]1(c2cccc(OCCc3ccccc3)c2)C[C@H]1C(=O)NO | 290 |  |
| COC(=O)[C@]1(c2cccc(OCCc3ccc4ccccc4c3)c2)C[C@H]1C(=O)NO | 60 |  |
| COC(=O)[C@]1(c2cccc(OCc3ccc(Cl)cc3)c2)C[C@H]1C(=O)NO | 50 |  |
| COC(=O)C1(Cc2cccc(OCc3ccccc3)c2)CC1C(=O)NO (racemic) | 4000 |  |
| COC(=O)[C@]1(c2cccc(OCc3ccc4ccccc4c3)c2)C[C@H]1C(=O)NO | 3000 |  |
| CCOC(=O)C1(c2ccc(OCc3ccccc3)cc2)CC1C(=O)NO (racemic) | 20000 |  |
